Experimental data from ChEMBL document CHEMBL1201862, “PubChem BioAssay data set” (2004).
Where “and” joins values, the source holds several entries; their conditions need not be identical. Identical values can stand only once. Calls of active or inactive are those of the source.

Key:
cells [1] = test: cells
[2] = molecular target: T1, Runt-related transcription factor 1/Core-binding factor subunit beta (Homo sapiens, UniProt Q01196+Q13951); test: inhibitors of RUNX1 Runt–CBFb-SMMHC binding, biochemical, TR-FRET (AID 1438); type: protein assay
cells [3] = conditions: HEK293;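 note: cells exposed to compound for 48 hours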
cells [4] = conditions: A549
[5] = molecular target: T1, Runt-related transcription factor 1/Core-binding factor subunit beta; test: inhibitors of RUNX1 Runt–CBFb-SMMHC binding, primary screen, biochemical, FRET, Cerulean-Runt, Venus-CBFb-SMMHC, uHTS (AID 1434); type: protein assay;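 note: partner is the CBFb-SMMHC leukemia fusion protein rather than wild-type CBFb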
[6] = molecular target: T2, Disintegrin and metalloproteinase domain-containing protein 17 (Homo sapiens, UniProt P78536); test: exosite inhibitors of ADAM17, dose response, biochemical (AID 743260)
[7] = ADAM10 protease inhibitors, dose response, selectivity assay for ADAM17 exosite inhibitor project, biochemical, FRET peptide substrate, recombinant human ADAM10 (AID 743259);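 note: ADAM10 enzyme cleaving a FRET peptide substrate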
[8] = ADAM10 inhibitors, peptide cleavage, dose response, biochemical, QFRET (AID 743254);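 note: ADAM10 enzyme with the DM2 quenched FRET peptide as substrate; EDANS fluorescence gain as the protease cuts the substrate; inhibitor potency against ADAM10 proteolytic activity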
[9] = molecular target: T2, Disintegrin and metalloproteinase domain-containing protein 17; test: ADAM17 protease inhibitors, dose response, counter-screen for ADAM10 exosite inhibitor project, biochemical, quenched FRET substrate (AID 743253)
[10] = HEK293T cytotoxicity, dose response, cytotoxicity control for miR-122 modulator project, cell-based, inhibitor set, cherry-pick, set 2 (AID 720697); type: functional
[11] = HEK293T cytotoxicity, dose response, cytotoxicity control for miR-122 modulator project, cell-based, activator set, cherry-pick (AID 720690); type: functional;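 note: HEK293T human cells scored for general mammalian cytotoxicity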
Paired box protein Pax-8 = Paired box protein Pax-8 (Homo sapiens, UniProt Q06710); test: inhibitors of PAX8-driven TPO luciferase reporter, dose response, RMG-I cells, cherry-pick (AID 687027); type: functional, cell-based;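 note: luciferase reporter driven by Pax8 target thyroperoxidase promoter measured by SteadyGlo luminescence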
[12] = inhibitors of CMV-promoter luciferase reporter, dose response, counter-screen for Pax8 inhibitor project, cell-based, HEK293, luminescence, dry powder (AID 743020); type: functional
[13] = NIH:OVCAR-3 ovarian cancer cell cytotoxicity, dose response, PAX8 inhibitor project, plate reader, dry powder samples (AID 743044); type: functional, cell-based
[14] = A2780 ovarian cancer cell cytotoxicity, dose response, cytotoxicity control, plate reader, dry powder samples (AID 743046); type: functional, cell-based
[15] = HEK293 Cytotoxicity Assay Measured in Cell-Based System Using Plate Reader - 7071-01_Inhibitor_Dose_CherryPick_Activity_Set2.; type: functional
HEK293 = test: HEK293T cell cytotoxicity, dose response, cytotoxicity control, ATP luminescence, cherry-pick samples (AID 687005); type: functional, cell-based; conditions: Homo sapiens;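 note: cells exposed to compound for 48 hours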
[16] = cytotoxicity in COV362 ovarian cancer cells, dose response, cytotoxicity control for PAX8 inhibitor project, cell-based, plate reader, dry powder, SA12 (AID 743144); type: functional
[17] = PAX2 cell-based inhibition, dose response, selectivity assay for PAX8 inhibitor project, plate reader, dry powder samples (AID 743048); type: functional;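 note: HEK293 cells carrying a WT1 promoter luciferase reporter driven by expressed Pax2; potency is for inhibition of Pax2 driven reporter signal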
[18] = cytotoxicity in OVCAR8 ovarian cancer cells, dose response, PAX8 project, cell-based, plate reader, dry powder samples (AID 743197); type: functional; conditions: OVCAR-8
[19] = PAX5 activity inhibitors, dose response, selectivity assay for PAX8 inhibitor project, cell-based, plate reader, dry powder samples (AID 743047); type: functional;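 note: HEK293 cells carrying a Pax5 driven CD19 promoter luciferase reporter; potency of inhibitors that lower reporter luminescence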
[20] = IGROV1 ovarian cancer cell cytotoxicity, dose response, PAX8 inhibitor project, plate reader, dry powder samples (AID 743043); type: functional, cell-based; conditions: IGROV-1
[21] = cytotoxicity dependent on PAX8, dose response, cell-based, plate reader, dry powder (AID 743049); type: functional
[22] = cytotoxicity in COV434 cells, dose response, cytotoxicity control for PAX8 inhibitor project, cell-based, plate reader, dry powder, SA7 (AID 743145); type: functional
[23] = molecular target: Protein disulfide-isomerase (Homo sapiens, UniProt P07237); test: PDI inhibitors, insulin turbidity readout, confirmation, biochemical, dry powder samples, set 2 (AID 652146)
[24] = molecular target: Metabotropic glutamate receptor 3 (Rattus norvegicus, UniProt P31422); test: mGlu3 NAM potency via calcium readout, dose response, mGlu3 NAM project, TREx293 cells, Galpha15, calcium flux (AID 651840); type: functional
[25] = molecular target: NAD-dependent protein deacylase sirtuin-5, mitochondrial (Homo sapiens, UniProt Q9NXA8); test: SIRT5 deacylase inhibitors, dose response, biochemical, fluorescence imaging, cherry-pick, set 6 (AID 720597)
[26] = Late stage assay provider results from the probe development effort to identify inhibitors of the Plasmodium falciparum M18 Aspartyl Aminopeptidase (M18AAP): radiolabel-based cell-based dose response assay to identify compounds that inhibit P. falciparum growth in RBCs, Set 2..; type: functional
[27] = inhibitors of orthopox intermediate gene expression, dose response, cell-based, single fluorophore reporter, dry powder (AID 1117271); type: functional
[28] = Single fluorophore orthopox expression reporter, late gene expression Measured in Cell-Based and Microorganism Combination System Using Plate Reader - 2142-08_Inhibitor_Dose_DryPowder_Activity.; type: functional
[29] = A549 cell cytotoxicity, dose response, CellTiter-Glo luminescence, dry powder, set 17 (AID 1117284); type: functional, cell-based
[30] = Orthopox viral replication plaque formation Measured in Cell-Based and Microorganism Combination System Using Imaging - 2142-05_Inhibitor_Dose_DryPowder_Activity.; type: functional
cells [31] = conditions: HEK293; remark: listed apart in the source;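 note: cells exposed to compound for 48 hours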
[32] = A549 cell cytotoxicity, dose response, cytotoxicity control, plate reader, dry powder, set 6 (AID 743312); type: functional, cell-based
[33] = TB: CFU replicating Measured in Microorganism System Using Imaging - 7108-05_Inhibitor_Dose_DryPowder_Activity_Set2.; type: functional
[34] = molecular target: Nuclear receptor subfamily 0 group B member 1 (Homo sapiens, UniProt P51843); type: functional, cell-based;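 note: HEK293T cells transfected with SF-1 and DAX-1 plus StAR promoter luciferase reporter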
[35] = control 3'UTR Renilla luciferase suppression, dose response, counter-screen for Shn3 inhibitor project, cell-based, Clone20-Shn3RL, cherry-picked (AID 624133); type: functional
Major prion protein = Major prion protein (Homo sapiens, UniProt P04156); type: functional, cell-based
INS1 = test: beta cell apoptosis inhibitors, cytokine rescue, dose response, luminescence, retest (AID 449756); type: functional, cell-based;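 note: cell death triggered by IL-1 beta plus TNF-alpha plus IFN-gamma mixture; protective hits raise ATP signal compared with cytokine alone wells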
cells [36] = type: functional, cell-based
[37] = cytotoxicity in HEK-293T cells, dose response, cytotoxicity control for BCR NF-kB inhibitor project, luminescence, B-cell screen hits (AID 489021); type: functional, cell-based;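 note: HEK-293T cells carrying an NF-kB luciferase reporter; cells exposed to compound for about 14 hours before viability readout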
[38] = Luminescence Cell-Based Dose Retest to Confirm Inhibitors of Cancer Stem Cells. [Related pubchem assays (depositor defined):AID2717, AID2721]; type: functional; conditions: Homo sapiens
[39] = Shn3 3'UTR reporter inhibitors, dose response, cell-based, Clone20 osteoblasts, firefly luciferase, cherry-picked (AID 624132); type: functional;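 note: firefly luciferase luminescence from reporter carrying the Shn3 3'UTR in osteoblasts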
cells [40] = test: cells; remark: listed apart in the source
[41] = RKO cell viability reduction, dose response, CellTiter-Glo luminescence (AID 1117322); type: functional
P388 = test: cells; type: functional; conditions: Mus musculus
[42] = cytotoxicity toward Colo320 cells – cell-based, CellTiter-Glo luminescence, IC50, dose response (AID 1117334); type: functional; conditions: COLO 320
P388/ADR = test: cells; type: functional; conditions: Mus musculus
[43] = SNU-C1 cell viability reduction, dose response, CellTiter-Glo luminescence (AID 1117323); type: functional, cell-based
[44] = CellTiter-Glo luminescent dose response of DLD-1 viability loss (AID 1117352); type: functional
[45] = cytotoxicity toward HCT116 cells – cell-based, CellTiter-Glo luminescence, IC50, dose response (AID 1117332); type: functional; conditions: HCT-116
[46] = HCT116 cell viability decrease, GSK3B pretreatment – CellTiter-Glo, IC50, dose response (AID 1117339); type: functional; conditions: HCT-116
[47] = Concentration-dependent survival of SW480 colon cancer line, luminescence detection with CellTiter-Glo, half-maximal inhibitory concentration (AID 1117338); type: functional
[48] = cytotoxicity toward HT-29 cells – cell-based, CellTiter-Glo luminescence, IC50, dose response (AID 1117330); type: functional
[49] = HeLa 4N DNA content increase, dose response, cell-based, IC50 (AID 1117351); type: functional
[50] = HeLa 2N DNA content increase, dose response, cell-based, IC50 (AID 1117349); type: functional
cells [51] = type: functional, cell-based; conditions: INS-1E
[52] = Dose-response inhibition of insulin secretion in a rat insulinoma line at 5 mM glucose (AID 1117331); type: functional, cell-based; conditions: INS-1E

With `CCN(CC)c1ccc2cc(C(N)=O)c(=O)oc2c1` the AC50 (cells [1]) was 573 nM (active).

For `O=c1[nH]c(=O)c2nc(-c3ccc(Cl)cc3)cnc2[nH]1`, the IC50 [2] was > 100 µM (inactive), the AC50 (cells [3]) was > 52 µM (inactive) and the AC50 (cells [4]) was > 52 µM (inactive). For the same molecule, the IC50 [5] was 643 nM (active).

With `O=C(NCC(c1ccc(F)cc1)N1CCOCC1)c1ccc(Br)o1` (configuration not stated) the IC50 [6] was > 69.5 µM (inactive) and the IC50 [7] was > 69.5 µM (inactive).

With `O=C(NC(Cc1c[nH]c2ccccc12)C(=O)Nc1ccc(OC(F)(F)F)cc1)c1cccs1` (configuration not stated) the IC50 [8] was 11 µM (inactive) and the IC50 [9] was > 69.5 µM (inactive).

With `C[C@H](CO)N1C[C@H](C)[C@@H](CN(C)C(=O)c2ccc3c(c2)OCO3)Oc2cc(C#Cc3ccccc3F)ccc2S1(=O)=O` the AC50 [10] was 9.58 µM (active), the AC50 [11] was 17.7 µM (active) and the AC50 (Paired box protein Pax-8) was 6.89 µM (active). The AC50 [12] was 62.6 µM (active).

In the case of `CC(C)(C)[S+]([O-])N1Cc2cc(C(=O)NCCCN3CCOCC3)nc(-c3cccc(C#CCC4CCCC4)c3)c2[C@@H]1CCO` (some centres not stated), the AC50 [13] is reported as 40.4 µM (active), the AC50 (Paired box protein Pax-8) is reported as 24 µM (active) and the AC50 [14] is reported as 4.02 µM (active).

In the case of `COC(=O)C1=C(C)N(Cc2ccc(Cl)cc2)C(=S)NC1c1cccc(F)c1` (configuration not stated), the AC50 [15] is reported as 21.4 µM (active) and the AC50 (HEK293) is reported as 21.4 µM (active).

With `N#C[C@@H]1[C@@H](c2ccc(C#Cc3ccccc3F)cc2)[C@H](CO)N1C(=O)C1CCCCC1` the AC50 [16] was 32.4 µM (active), the AC50 [17] was 53.3 µM (active) and the AC50 [18] was 37.5 µM (active). The AC50 [19] was 25.8 µM (active), the AC50 (Paired box protein Pax-8) was 9.74 µM (active) and the AC50 [20] was 33.4 µM (active). The AC50 [21] was 28.6 µM (active) and the AC50 [22] was 25 µM (active).

For `CCOC(=O)C1(Cc2ccccc2)CCN(Cc2ccc(O)c(Cl)c2)CC1`, the AC50 [23] was > 30 µM (inactive).

`CCCCC1(O)CCCN(C(=O)c2ccc(C#Cc3ccc(OC)cc3)cc2)C1` (configuration not stated) showed an IC50 [24] of 2920 nM.

With `CCC(=O)N1C[C@@H](C)[C@@H](OC)CN(C)C(=O)c2cc(NC(=O)CC(F)(F)F)ccc2OC[C@@H]1C` the AC50 [25] was 4 µM (active).

With `Oc1ccc(CCNc2c3ccccc3nc3ccccc23)cc1` the IC50 [26] was 700 nM (active).

With `C[C@@H](O)C#Cc1ccc2c(c1)O[C@@H](CN(C)Cc1ccc(-c3ccccc3Cl)cc1)[C@@H](C)CN([C@@H](C)CO)S2(=O)=O` the AC50 [27] was 1.43 µM (active), the AC50 [28] was 1.18 µM (active) and the AC50 [29] was > 52 µM (inactive). The AC50 [30] was 601 nM (active).

For `CC(C)c1ccccc1NCCn1c(=S)[nH]c2ccccc21`, the AC50 (cells [31]) was 27.5 µM (active) and the AC50 [32] was 21.1 µM (active).

For `Cn1c(NC(=O)c2ccccc2F)nc2ccccc21`, the AbsAC90 [33] was 128.74 µM.

In the case of `C[C@H]1CCC/C=C/[C@@H]2C[C@H](O)C[C@H]2[C@H](O)/C=C/C(=O)O1` [BREFELDIN A], the IC50 [34] is reported as 134 nM (active), the AC50 [35] is reported as 10.3 µM (active) and the IC50 (Major prion protein) is reported as 3.5 µM (active). For the same molecule, the AC50 (INS1; Rattus norvegicus, INS1) was 1.03 µM (active), the AC50 (INS1; ins1) was 1.06 µM (active) and the IC50 (cells [36]) was > 67.6 µM (inactive). For the same molecule, the IC50 [37] was > 80 µM (inactive), the AC50 [38] was < 160 nM (active) and the AC50 (Paired box protein Pax-8) was < 0.26 µM (active). For the same molecule, the AC50 [39] was 3.15 µM (active) and 2.2 µM (active) and the IC50 (cells [40]) was > 138 µM (inactive).

In the case of `CCCCCCCCCCCCCCCCOP(=O)([O-])OCC[N+](C)(C)C` [MILTEFOSINE], the IC50 [41] is reported as 437 nM (active), the GI50 (P388) is reported as 21.2 µM (inactive) and the IC50 [42] is reported as 1.49 µM (active). For the same molecule, the GI50 (P388/ADR) was 35.4 µM (inactive), the IC50 [43] was 965 nM (active) and the IC50 [44] was 1.23 µM (active). For the same molecule, the IC50 [45] was 3.39 µM (active), the IC50 [46] was 1.48 µM (active) and the IC50 [47] was 478 nM (active). The IC50 [48] was 1.96 µM (active).

With `Nc1ccc2cc3ccc(N)cc3nc2c1` [PROFLAVINE HEMISULFATE] the IC50 [49] was > 10 µM (inactive), the IC50 [50] was > 10 µM (inactive) and the IC50 (cells [51]) was > 33.3 µM (inactive). The IC50 [52] was 20.6 µM (inactive).
